Laboratory results reported in the NIST ThermoML archive (doi:10.1021/je060271a).

Conditions: 343.15 K, Liquid, Vibrating tube method

CCCCCCC(=O)OCC(COC(=O)CCCCCC)(COC(=O)CCCCCC)COC(=O)CCCCCC [pentaerythritol tetraheptanoate]
Conditions	mass density [kg/m3]
476.1 kPa	940.9
482 kPa	941
488.1 kPa	940.8
495.4 kPa	940.9
502 kPa	940.9
508.7 kPa	940.9
517.2 kPa	941
524.5 kPa	941
532 kPa	941.1
540.9 kPa	940.9
548.4 kPa	941
556.3 kPa	941.1
566.3 kPa	941.1
574.9 kPa	941
583.8 kPa	940.9
594.9 kPa	941
603.8 kPa	941
613.5 kPa	941.1
625.7 kPa	941.1
635.8 kPa	941.1
646.5 kPa	941
659.6 kPa	940.9
671.2 kPa	941.2
682.7 kPa	941.2
697.1 kPa	941.1
710.1 kPa	941.2
724 kPa	941.1
738.3 kPa	941
752.5 kPa	941.1
767.1 kPa	941.2
785.4 kPa	941.2
801.2 kPa	941.1
817.7 kPa	941.3
834.7 kPa	941.2
856.1 kPa	941.1
874 kPa	941.2
893.8 kPa	941.3
917.4 kPa	941.2
938.8 kPa	941.3
961.5 kPa	941.3
984.8 kPa	941.2
1008.1 kPa	941.3
1031.5 kPa	941.3
1061.2 kPa	941.5
1083.6 kPa	941.4
1098.2 kPa	941.3
1114.7 kPa	941.4
1128.5 kPa	941.4
1142.9 kPa	941.4
1159.9 kPa	941.4
1174.6 kPa	941.5
1189.9 kPa	941.6
1208.5 kPa	941.5
1224.5 kPa	941.5
1241 kPa	941.6
1261 kPa	941.6
1278.5 kPa	941.6
1296.2 kPa	941.6
1314.1 kPa	941.6
1336.3 kPa	941.6
1355.4 kPa	941.6
1375.4 kPa	941.5
1441 kPa	941.6
1467.4 kPa	941.7
1489.7 kPa	941.8
1512.2 kPa	941.7
1535.7 kPa	941.8
1564.1 kPa	941.8
1588.8 kPa	941.8
1613.6 kPa	941.8
1644.5 kPa	941.8
1671.3 kPa	941.8
1699 kPa	941.9
1727.1 kPa	941.8
1762.2 kPa	941.9
1792.2 kPa	941.9
1821.9 kPa	941.8
1847.4 kPa	942
1859.8 kPa	941.9
1867.2 kPa	942
1876.6 kPa	942
1884.6 kPa	942.1
1892.9 kPa	942
1901.2 kPa	942
1911 kPa	942.1
1919.1 kPa	942
1927.8 kPa	942.1
1937.7 kPa	942.1
1946.9 kPa	942.1
1955.4 kPa	942.1
1964.1 kPa	942.1
1974.3 kPa	942.1
1983.3 kPa	942.1
1992.2 kPa	942
2001 kPa	942.1
2012 kPa	942.2
2021 kPa	942.2
2030.2 kPa	942.1
2040.9 kPa	942.1
2050.5 kPa	942.1
2059.8 kPa	942.2
2069.4 kPa	942.3
2079.3 kPa	942.2
2090.4 kPa	942.2
2099.8 kPa	942.2
2111.2 kPa	942.2
2121.3 kPa	942.1
2130.8 kPa	942.3
2142.6 kPa	942.2
2152.5 kPa	942.2
2162.2 kPa	942.3
2172.5 kPa	942.2
2184.4 kPa	942.3
2195 kPa	942.3
2206.1 kPa	942.2
2216.5 kPa	942.3
2228.9 kPa	942.4
2239.4 kPa	942.3
2249.8 kPa	942.2
2260.8 kPa	942.3
2273.8 kPa	942.3
2284.7 kPa	942.3
2295.3 kPa	942.4
2308.5 kPa	942.3
2319.6 kPa	942.4
2330.5 kPa	942.4
2344.6 kPa	942.3
2356.7 kPa	942.4
2368 kPa	942.5
2379.5 kPa	942.3
2390.7 kPa	942.3
2405 kPa	942.2
2416.9 kPa	942.4
2428.7 kPa	942.4
2442.8 kPa	942.5
2454.7 kPa	942.4
2466.9 kPa	942.5
2481.6 kPa	942.5
2493.9 kPa	942.5
2506.3 kPa	942.7
2518.9 kPa	942.4
2534.2 kPa	942.4
2546.7 kPa	942.6
2559.3 kPa	942.5
2574.1 kPa	942.5
2587.4 kPa	942.5
2600.6 kPa	942.5
2616.2 kPa	942.5
2629.4 kPa	942.6
2642.8 kPa	942.7
2656.5 kPa	942.6
2672.6 kPa	942.7
2686.5 kPa	942.7
2700.9 kPa	942.7
2714.7 kPa	942.6
2731.4 kPa	942.6
2745.6 kPa	942.6
2759.8 kPa	942.7
2777 kPa	942.7
2791.7 kPa	942.6
2806.1 kPa	942.7
2823.8 kPa	942.7
2838.2 kPa	942.7
2853.3 kPa	942.7
2871.1 kPa	942.8
2886.2 kPa	942.8
2902 kPa	942.8
2917.3 kPa	942.9
2935.8 kPa	942.8
2951.4 kPa	942.8
2967.4 kPa	942.8
2986.5 kPa	942.9
3002.7 kPa	942.8
3018.9 kPa	942.9
3038.1 kPa	942.9
3054.6 kPa	942.8
3071.2 kPa	943
3088.2 kPa	943
3108.3 kPa	943
3125.5 kPa	942.9
3142.7 kPa	943
3163.3 kPa	942.9
3181 kPa	943
3198.1 kPa	943
3219.1 kPa	943
3237.1 kPa	943
3254.6 kPa	943
3276.5 kPa	943.1
3294.7 kPa	943.2
3313 kPa	943.2
3335.1 kPa	943.2
3354.3 kPa	943.1
3373.4 kPa	943.2
3392.3 kPa	943
3411.7 kPa	943.3
3435.1 kPa	943.2
3454.3 kPa	943.2
3473.9 kPa	943.2
3497.6 kPa	943.2
3517.4 kPa	943.2
3537.3 kPa	943.3
3561.7 kPa	943.3
3582.2 kPa	943.4
3603.3 kPa	943.2
3625.8 kPa	943.3
3646.8 kPa	943.3
3672.1 kPa	943.3
3693.4 kPa	943.5
3715.2 kPa	943.4
3736.7 kPa	943.4
3763.2 kPa	943.5
3785.2 kPa	943.4
3807.8 kPa	943.5
3834.6 kPa	943.5
3857.8 kPa	943.4
3885.7 kPa	943.5
3909.5 kPa	943.5
3934.6 kPa	943.5
3958.1 kPa	943.7
3981.8 kPa	943.5
4005.9 kPa	943.6
4035 kPa	943.6
4059.1 kPa	943.7
4088.5 kPa	943.7
